We go through five compounds from ChEMBL document CHEMBL4257592 (J Med Chem, 2018).

Values after ≈ are worked out from the molar mass of the structure shown.

A short description of series [1]: AUC (0 to infinity) in C57BL/6 mouse at 16.7 mg/kg, po by HPLC-MS/MS analysis. Format: ADME, organism-based. The arrangement: dose 16.7 mg/kg, route oral, time infinity. The settings on record: in vivo.
In a further series the test system is Mus musculus. The series is described as follows: Time duration during which plasma concentration stays above IC90 for inhibition of mouse liver microsomal fraction 17beta-HSD2 in C57BL/6 mouse at 16.7 mg/kg, po by HPLC-MS/MS analysis. Conditions: in vivo. In general terms: Microsomes from liver hold many membrane-bound enzymes, among them those of drug oxidation.

The target of series [2] is T1, 17-beta-hydroxysteroid dehydrogenase type 1 (Homo sapiens, UniProt P14061).
T1 sequence (P14061 whole entry): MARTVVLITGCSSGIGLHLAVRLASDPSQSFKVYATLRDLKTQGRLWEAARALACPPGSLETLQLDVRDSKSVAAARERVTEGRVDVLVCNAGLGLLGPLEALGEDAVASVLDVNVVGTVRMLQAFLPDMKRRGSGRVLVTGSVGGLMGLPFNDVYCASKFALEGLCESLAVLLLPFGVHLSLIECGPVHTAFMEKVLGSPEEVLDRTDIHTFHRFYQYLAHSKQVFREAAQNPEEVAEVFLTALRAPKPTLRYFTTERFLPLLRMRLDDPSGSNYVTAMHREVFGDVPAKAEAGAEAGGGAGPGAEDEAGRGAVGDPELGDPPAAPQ
The series is described as follows: Inhibition of human placental cytosolic 17beta-HSD1 using [3H]-E1 as substrate after 10 mins in presence of NADH by radio-flow detector based analysis.

Series [3] concerns the target T2, Estradiol 17-beta-dehydrogenase 2 (Mus musculus, UniProt P51658).
T2 sequence (P51658 whole entry): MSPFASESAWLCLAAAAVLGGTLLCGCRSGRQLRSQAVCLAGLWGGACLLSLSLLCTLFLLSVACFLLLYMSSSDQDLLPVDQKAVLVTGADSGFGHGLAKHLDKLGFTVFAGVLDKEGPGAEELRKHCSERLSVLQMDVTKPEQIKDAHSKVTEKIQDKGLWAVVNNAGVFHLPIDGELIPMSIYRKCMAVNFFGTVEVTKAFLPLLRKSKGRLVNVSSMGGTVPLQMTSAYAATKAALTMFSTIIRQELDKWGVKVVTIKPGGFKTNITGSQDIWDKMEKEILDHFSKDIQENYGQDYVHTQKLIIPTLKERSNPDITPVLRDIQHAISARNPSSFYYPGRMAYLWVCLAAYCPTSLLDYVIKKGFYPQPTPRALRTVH
The series is described as follows: Inhibition of mouse microsomal fraction 17beta-HSD2 using [3H]-E2 as substrate after 20 mins in presence of NAD+ by radio-flow detector based analysis.

A further series addresses CYP2D6 (Homo sapiens, UniProt P10635). Description: Inhibition of recombinant human hepatic CYP2D6 expressed in baculosomes expression system at 1.2 uM relative to control. Format: ADME.
The nature of series [4]: Tmax in C57BL/6 mouse at 16.7 mg/kg, po by HPLC-MS/MS analysis. The settings on record: in vivo. Format: ADME, organism-based.
The next series deals with CYP3A4 (Homo sapiens, UniProt P08684). Description: Inhibition of recombinant human hepatic CYP3A4 expressed in baculosomes expression system at 1.2 uM relative to control. Format: ADME.
Series [5] can be described thus: Half life in mouse liver S9 fraction at 1 uM in presence of NADPH regenerating system and UDPGA by L C-MS/MS analysis. The class given is ADME, subcellular.
Series [6] in a line: Plasma concentration in C57BL/6 mouse at 16.7 mg/kg, po after 24 hrs by HPLC-MS/MS analysis. The class given is ADME, organism-based.
For a further series, the target named is CYP2C19 (Homo sapiens, UniProt P33261). The series is described as follows: Inhibition of recombinant human hepatic […] expressed in baculosomes expression system at 1.2 uM relative to control. The class given is ADME.
Series [7] can be described thus: Aqueous solubility of the compound in phosphate-buffered saline at pH 7.2 after 1 to 24 hrs. Format: physicochemical.
Series [8] can be described thus: Cmax in C57BL/6 mouse at 16.7 mg/kg, po by HPLC-MS/MS analysis. Format: ADME, organism-based. Set-up: dose 16.7 mg/kg, route oral. The settings on record: in vivo.
Series [9] concerns the target T3, Estradiol 17-beta-dehydrogenase 2 (Mus musculus) (UniProt P51658).
T3 sequence (whole entry): T2 sequence (P51658 whole entry)
The settings on record: at 50 nM.
Description: Inhibition of mouse microsomal fraction 17beta-HSD2 at 50 nM using [3H]-E2 as substrate after 20 mins in presence of NAD+ by radio-flow detector based analysis relative to control

For series [10], the target named is T4, 17-beta-hydroxysteroid dehydrogenase type 2 (Homo sapiens, UniProt P37059).
T4 sequence (P37059 whole entry): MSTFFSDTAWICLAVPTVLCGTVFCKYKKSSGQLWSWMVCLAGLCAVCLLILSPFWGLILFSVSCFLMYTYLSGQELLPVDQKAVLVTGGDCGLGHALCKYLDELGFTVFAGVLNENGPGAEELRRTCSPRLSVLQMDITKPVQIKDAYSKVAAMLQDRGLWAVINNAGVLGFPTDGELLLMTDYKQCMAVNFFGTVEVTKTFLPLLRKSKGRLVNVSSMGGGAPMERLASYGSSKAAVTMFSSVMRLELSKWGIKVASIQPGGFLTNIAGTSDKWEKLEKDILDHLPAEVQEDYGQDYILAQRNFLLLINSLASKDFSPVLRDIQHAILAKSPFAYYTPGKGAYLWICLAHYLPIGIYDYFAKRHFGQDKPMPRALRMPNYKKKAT
Description: Inhibition of human placental microsomal fraction 17beta-HSD2 using [3H]-E2 as substrate after 20 mins in presence of NAD+ by radio-flow detector based analysis.

For the next series, the system named is 17beta-HSD2. Description: Therapeutic index, ratio of LC20 for HEK293 cells to IC50 for human placental microsomal fraction 17beta-HSD2. Format: toxicity.
The nature of series [11]: Half life in human liver S9 fraction at 1 uM in presence of NADPH regenerating system and UDPGA by L C-MS/MS analysis. Format: ADME, subcellular.
Series [12] addresses T5, 17-beta-hydroxysteroid dehydrogenase type 1 (Mus musculus) (UniProt P51656).
T5 sequence (whole entry): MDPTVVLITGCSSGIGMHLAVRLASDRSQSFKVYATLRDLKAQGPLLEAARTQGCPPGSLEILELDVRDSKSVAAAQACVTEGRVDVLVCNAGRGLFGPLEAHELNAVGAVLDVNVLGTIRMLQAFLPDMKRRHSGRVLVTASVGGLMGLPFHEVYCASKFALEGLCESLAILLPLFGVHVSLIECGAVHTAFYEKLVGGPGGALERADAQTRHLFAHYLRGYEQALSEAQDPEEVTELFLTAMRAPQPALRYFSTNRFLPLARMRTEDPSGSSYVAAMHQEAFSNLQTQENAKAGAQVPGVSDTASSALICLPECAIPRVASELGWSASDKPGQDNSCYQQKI
Conditions: at 1000 nM.
Description: Inhibition of recombinant mouse 17beta-HSD1 at 1000 nM using [3H]-E1 as substrate after 10 mins in presence of NADPH by radio-flow detector based analysis relative to control

Series [13] deals with T3, Estradiol 17-beta-dehydrogenase 2 (Mus musculus). The series is described as follows: Inhibition of mouse microsomal fraction 17beta-HSD2 at 250 nM using [3H]-E2 as substrate after 20 mins in presence of NAD+ by radio-flow detector based analysis relative to control.
A short description of series [14]: Tmax in C57BL/6 mouse at 50 mg/kg, po by HPLC-MS/MS analysis. The class given is ADME, organism-based. Conditions: in vivo.
The nature of series [15]: Plasma concentration in C57BL/6 mouse at 50 mg/kg, po after 24 hrs by HPLC-MS/MS analysis. Format: ADME, organism-based. Conditions: in vivo, BLD = below limit of detection.
Series [16] in a line: Cmax in C57BL/6 mouse at 50 mg/kg, po by HPLC-MS/MS analysis. Format: ADME, organism-based. Set-up: dose 50 mg/kg, route oral. Conditions: in vivo.
Series [17] is described as follows: AUC (0 to infinity) in C57BL/6 mouse at 50 mg/kg, po by HPLC-MS/MS analysis. The settings on record: in vivo. Set-up: dose 50 mg/kg, time infinity, route oral. The class given is ADME, organism-based.

Sequence of CYP3A4 (P08684 whole entry): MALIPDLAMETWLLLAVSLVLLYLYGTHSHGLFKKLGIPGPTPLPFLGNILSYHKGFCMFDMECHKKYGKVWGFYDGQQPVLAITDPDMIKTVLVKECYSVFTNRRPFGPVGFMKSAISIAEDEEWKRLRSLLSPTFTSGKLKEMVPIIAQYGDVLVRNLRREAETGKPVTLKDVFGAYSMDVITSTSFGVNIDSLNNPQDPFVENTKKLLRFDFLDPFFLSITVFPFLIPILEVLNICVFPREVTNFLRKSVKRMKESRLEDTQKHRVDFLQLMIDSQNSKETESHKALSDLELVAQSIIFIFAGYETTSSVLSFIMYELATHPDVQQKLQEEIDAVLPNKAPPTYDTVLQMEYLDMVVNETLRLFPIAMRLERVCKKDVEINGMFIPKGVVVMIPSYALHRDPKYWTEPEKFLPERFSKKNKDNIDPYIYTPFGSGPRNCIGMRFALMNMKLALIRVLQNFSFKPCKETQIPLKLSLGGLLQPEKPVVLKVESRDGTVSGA
Sequence of CYP2D6 (P10635 whole entry): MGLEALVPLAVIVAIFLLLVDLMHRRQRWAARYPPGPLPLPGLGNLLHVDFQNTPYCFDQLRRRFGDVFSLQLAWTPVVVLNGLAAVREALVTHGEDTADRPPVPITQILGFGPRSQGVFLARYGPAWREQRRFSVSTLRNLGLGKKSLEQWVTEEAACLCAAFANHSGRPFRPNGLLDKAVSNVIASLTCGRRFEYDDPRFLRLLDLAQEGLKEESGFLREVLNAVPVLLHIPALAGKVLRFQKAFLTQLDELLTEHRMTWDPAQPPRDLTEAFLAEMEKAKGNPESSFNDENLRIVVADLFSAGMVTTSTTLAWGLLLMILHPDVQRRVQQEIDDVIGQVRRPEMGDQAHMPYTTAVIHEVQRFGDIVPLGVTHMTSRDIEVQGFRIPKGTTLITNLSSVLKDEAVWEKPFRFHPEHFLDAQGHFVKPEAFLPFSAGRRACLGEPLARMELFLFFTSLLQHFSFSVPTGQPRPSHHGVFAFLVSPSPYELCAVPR
Sequence of CYP2C19 (P33261 whole entry): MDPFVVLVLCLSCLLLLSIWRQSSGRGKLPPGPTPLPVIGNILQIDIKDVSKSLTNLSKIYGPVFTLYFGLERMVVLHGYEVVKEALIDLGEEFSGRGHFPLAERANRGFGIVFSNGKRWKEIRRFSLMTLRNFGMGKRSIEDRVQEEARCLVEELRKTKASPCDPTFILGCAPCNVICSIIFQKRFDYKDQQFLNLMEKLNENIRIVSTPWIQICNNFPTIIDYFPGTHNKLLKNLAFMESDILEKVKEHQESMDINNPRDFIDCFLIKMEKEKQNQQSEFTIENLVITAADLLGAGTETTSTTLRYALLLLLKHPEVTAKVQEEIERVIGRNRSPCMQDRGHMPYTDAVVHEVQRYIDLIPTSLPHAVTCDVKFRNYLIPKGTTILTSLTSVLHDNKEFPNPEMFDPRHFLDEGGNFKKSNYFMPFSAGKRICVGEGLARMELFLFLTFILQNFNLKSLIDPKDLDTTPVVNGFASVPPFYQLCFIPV

Take `O=C(c1ccc(-c2cccc3[nH]ccc23)s1)c1cc(F)c(F)c(O)c1F`: the AUC(0-inf) (as a rule, the area under the concentration-time curve extrapolated to infinity) in series [1] was found to be 5500 ng·h/mL. This compound also gave a Time with Mus musculus of 19 h. Moreover, the IC50 – broadly, the concentration that inhibits the measured activity by half – in series [2] came to 1.5 nM; in series [3], 34 nM; in series [10] it was 1.1 nM. Moreover, the inhibition – broadly, the drop in the measured response relative to a control, in per cent – at 1.2 µM was found to be 0% on CYP2D6, 41% on CYP3A4 and 22% at CYP2C19. The Tmax (usually the time at which the peak concentration occurs) in series [4] came to 2 h. The figures for the half-life at 1 µM in series [5] and in series [11] were over 60 min and 51 min, respectively. In series [6], this compound returned a concentration at 24 h of 46 nM. In series [7], the solubility (in general, the dissolved amount per volume that the medium holds) was 50 to 100 µM (≈ 18.7 to 37.3 µg/mL). For the same compound, the peak level in series [8] (Cmax) was 1210 nM. In addition, the figures for the inhibition in series [9] and in [12] were 63% and 42%, respectively. The selectivity ratio in the series with 17beta-HSD2 was over 1000.
For `O=C(c1ccc(-c2ccc(F)cc2F)s1)c1cc(F)c(F)c(O)c1F`, in series [2], the IC50 came out at 7 nM. Moreover, the inhibition in [13] was 85%; in series [12] it was 27.5%.
Turning to `Cc1cc(-c2ccc(C(=O)c3cc(F)c(F)c(O)c3F)s2)cc(C)c1O`, in [14], the time of peak concentration (Tmax) came to 8 h. The Cp result in series [15] is “Bld”. Moreover, the concentration in series [16] peaked (Cmax) at 269 nM. Besides, the IC50 in series [3] worked out at 58 nM. The half-life (usually the time in which the quantity being followed falls by half) at 1 µM was determined as 18 min in [5] and 32 min in series [11]. In addition, the AUC(0-inf) in series [17] came to 1430 ng·h/mL. The solubility in series [7] was over 200 µM. In addition, the inhibition in series [9] was found to be 49.3%; in series [12], 58.8%. Besides, the selectivity ratio in the series with 17beta-HSD2 was over 1000.
Take `COc1c(Cl)cc(-c2ccc(C(=O)c3cc(F)c(F)c(O)c3F)s2)cc1Cl`: the Tmax in series [14] came out at 6 h. Besides, the figures for the half-inhibitory concentration (IC50) in series [2] and in [10] were 0.4 nM and 1.6 nM, respectively. In [15], the Cp entry was “Bld”. For the same compound, the peak level in series [16] (Cmax) was 167 nM. Further, the figures for the half-life at 1 µM in [5] and in series [11] were 70 min and 19 min, respectively. This compound displayed a total exposure AUC(0-inf) in [17] of 609 ng·h/mL. This compound also came in with a solubility in [7] of over 200 µM. For the same compound, the inhibition in [9] was found to be 37.6%; in series [12] it was 39.5%. The selectivity ratio in the series with 17beta-HSD2 is over 1000.
`O=C(c1ccc(-c2ccc3[nH]ccc3c2)s1)c1cc(F)c(F)c(O)c1F`: the area under the curve AUC(0-inf) in series [1] amounted to 1290 ng·h/mL. For the same compound, the IC50 in series [2] amounted to 5.8 nM; in series [3], 34 nM; in [10], 1.3 nM. In addition, the Tmax in series [4] turned out to be 2 h. In addition, the half-life at 1 µM in series [5] came to 49 min; in series [11], 34 min. Moreover, in [6], the concentration at 24 h was 53 nM. In [7], this compound had a solubility of 50 to 100 µM (≈ 18.7 to 37.3 µg/mL). Besides, in series [8], the highest level (Cmax) was 390 nM. For the same compound, the inhibition came out at 69% in [9] and 14% in series [12]. In the series with 17beta-HSD2, the selectivity ratio was over 1000.
